The values that follow are results of earlier work, collected in patent publication US8552052B2, “Use of diindolylmethane-related indoles for the treatment and prevention of respiratory syncytial virus associated conditions” (BioResponse, L.L.C., priority 2004, dated 2013).

In this series the test system is RSV. To be noted: monthly intramuscular injections; cited from earlier work.

As to “Palivizumab: IgG1 monoclonal antibody that selectively binds to the RSV surface glycoprotein F”, the “reduction of the rate of hospitalization of at-risk infants” value is on record as “about 55%”.
